# Measured values reported in ChEMBL document CHEMBL1130376, “Effects of taxoids from Taxus cuspidata on microtubule depolymerization and vincristine accumulation in MDR cells” (Bioorg Med Chem Lett, 1997).
# Legend:
# [1] = biological target: Tubulin alpha chain (Sus scrofa) (UniProt P02550); test: Tested for inhibitory concentration against […]-induced depolymerization of microtubules; assay type: functional
# [2] = Vincristine (VCR) accumulation in multidrug resistant human ovarian cancer 2780 AD cells at a concentration 1 ug/mL; assay type: functional
# [3] = Vincristine (VCR) accumulation in multidrug resistant human ovarian cancer 2780 AD cells at a concentration 10 ug/mL; assay type: functional
# [4] = system: L1210; test: Cytotoxicity against murine leukemia L1210 cells; assay type: functional, cell-based, Mus musculus; conditions: Mus musculus, L1210; read-out: IC50
# [5] = Cytotoxicity against human epidermoid carcinoma KB cells; assay type: functional, cell-based
# Chain of Tubulin alpha chain (Sus scrofa) (P02550 whole entry, looked up): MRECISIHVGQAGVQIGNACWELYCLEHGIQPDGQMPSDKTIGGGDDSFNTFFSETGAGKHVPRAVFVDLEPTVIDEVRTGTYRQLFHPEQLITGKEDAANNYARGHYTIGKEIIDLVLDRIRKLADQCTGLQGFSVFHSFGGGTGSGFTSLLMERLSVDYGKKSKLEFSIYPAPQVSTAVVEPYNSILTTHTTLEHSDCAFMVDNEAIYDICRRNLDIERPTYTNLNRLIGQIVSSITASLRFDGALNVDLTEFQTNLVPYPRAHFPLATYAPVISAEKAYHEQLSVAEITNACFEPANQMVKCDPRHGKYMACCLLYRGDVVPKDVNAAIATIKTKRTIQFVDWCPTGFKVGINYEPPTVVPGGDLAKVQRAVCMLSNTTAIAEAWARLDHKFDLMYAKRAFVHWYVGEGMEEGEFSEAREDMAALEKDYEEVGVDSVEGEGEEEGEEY
Compound,Concentration [1],vincristine accumulation (% of control) [2],vincristine accumulation (% of control) [3],IC50 [4],IC50 [5]
CC(=O)O[C@H]1C(=O)[C@@]2(C)[C@H]([C@H](OC(=O)c3ccccc3)[C@]3(O)C[C@H](OC(=O)[C@H](O)[C@@H](NC(=O)c4ccccc4)c4ccccc4)C(C)=C1C3(C)C)[C@]1(OC(C)=O)CO[C@@H]1C[C@@H]2O,10 µM,–,–,–,–
CC(=O)OC[C@H]1[C@H]2[C@H](O)[C@]3(O)C[C@H](OC(C)=O)C(C)=C([C@@H](OC(C)=O)[C@H](OC(C)=O)[C@]2(C)[C@@H](OC(C)=O)C[C@@H]1OC(C)=O)C3(C)C,–,147%,208%,4.6 µg/mL,> 10 µg/mL
CC(=O)O[C@H]1C(=O)[C@@]2(C)[C@H]([C@H](OC(=O)c3ccccc3)[C@]3(O)C[C@H](OC(=O)[C@H](O)C(NC(=O)C4CCC4)c4ccccc4)C(C)=C1C3(C)C)[C@]1(OC(C)=O)CO[C@@H]1C[C@@H]2O (stereo not given in full),–,88%,93%,0.25 µg/mL,0.086 µg/mL
C/C=C(\C)C(=O)O[C@@H]1C2=C(C)[C@@H](O)C[C@@]2(C(C)(C)O)[C@@H](OC(C)=O)[C@@H]2[C@]3(OC(C)=O)CO[C@@H]3C[C@H](OC(C)=O)[C@@]2(C)[C@H]1OC(C)=O,–,145%,206%,4 µg/mL,0.3 µg/mL
CC(=O)O[C@@]12CO[C@H]1C[C@H](O)[C@@]1(C)C(=O)[C@H](O)C3=C(C)[C@@H](O)C[C@@](O)([C@@H](OC(=O)c4ccccc4)[C@H]21)C3(C)C,–,153%,271%,> 10 µg/mL,> 10 µg/mL
C=C1[C@@H](O)C[C@H](OC(C)=O)[C@@]2(C)[C@@H](OC(C)=O)[C@H](OC(C)=O)[C@]3(O)[C@@]4(C)CO[C@]3(C)C(=O)C[C@H]4[C@@H](OC(C)=O)[C@H]12,–,225%,213%,> 10 µg/mL,> 10 µg/mL
CC(=O)O[C@H]1C[C@H]2[C@@H](OC(C)=O)/C=C3\C[C@](C)(C(=O)[C@H](O)C(=C1C)C2(C)C)[C@@H](OC(C)=O)C[C@@H]3OC(=O)/C=C/c1ccccc1 [TAXUSPINE B],–,219%,713%,> 10 µg/mL,> 10 µg/mL
C=C1[C@@H](OC(=O)CC(c2ccccc2)N(C)C)CC[C@@]2(C)[C@@H](OC(C)=O)[C@H](OC(C)=O)C3=C(C)C(=O)C[C@@](O)([C@@H](OC(C)=O)[C@H]12)C3(C)C (stereo not given in full),–,175%,466%,2.7 µg/mL,> 10 µg/mL
C=C1[C@@H](OC(=O)CC(c2ccccc2)N(C)C)C[C@H](OC(C)=O)[C@@]2(C)[C@@H](OC(C)=O)[C@H](OC(C)=O)[C@@]3(O)C(C)=C(OC(C)=O)C[C@@H]([C@@H](OC(C)=O)[C@H]12)C3(C)C (stereo not given in full),–,133%,358%,2.5 µg/mL,2.6 µg/mL
CC(=O)O[C@H]1C[C@H]2OC[C@@]2(OC(C)=O)[C@H]2[C@H](OC(C)=O)[C@]3(C(C)(C)O)C[C@H](OC(=O)/C=C/c4ccccc4)C(C)=C3[C@@H](OC(=O)c3ccccc3)[C@H](OC(C)=O)[C@]12C [TAXCHININ B],–,219%,639%,3.8 µg/mL,> 10 µg/mL
C=C1[C@@H](O)CC[C@@]2(C)[C@@H](OC(C)=O)[C@H](OC(C)=O)C3=C(C)C(=O)C[C@@](O)([C@@H](OC(C)=O)[C@H]12)C3(C)C,–,152%,216%,6.2 µg/mL,0.6 µg/mL
C=C1[C@@H](O)CC[C@@]2(C)[C@@H](OC(C)=O)[C@H](OC(C)=O)C3=C(C)C(=O)C[C@@H]([C@@H](O)[C@H]12)C3(C)C,–,139%,271%,> 10 µg/mL,> 10 µg/mL
C=C1[C@@H](OC(=O)/C=C/c2ccccc2)C[C@H](OC(C)=O)[C@@]2(C)[C@@H](OC(C)=O)[C@H](OC(C)=O)C3=C(C)C(=O)C[C@@H]([C@@H](OC(C)=O)[C@H]12)C3(C)C,–,116%,438%,> 10 µg/mL,> 10 µg/mL
C=C1[C@@H](OC(=O)CC(c2ccccc2)N(C)C)CC[C@@]2(C)[C@@H](OC(C)=O)[C@H](OC(C)=O)C3=C(C)C(=O)C[C@@H]([C@@H](OC(C)=O)[C@H]12)C3(C)C (stereo not given in full),–,177%,704%,> 10 µg/mL,> 10 µg/mL
C=C1[C@@H](OC(=O)CC(c2ccccc2)N(C)C)C[C@H](OC(C)=O)[C@]2(C)[C@@H]1C[C@@H]1C[C@H](OC(C)=O)C(C)=C([C@@H](OC(C)=O)[C@@H]2OC(C)=O)C1(C)C (stereo not given in full),–,233%,841%,7.2 µg/mL,> 10 µg/mL
C=C1[C@@H](OC(=O)CC(c2ccccc2)N(C)C)CC[C@]2(C)[C@@H]1C[C@@H]1C[C@H](OC(C)=O)C(C)=C([C@@H](OC(C)=O)[C@@H]2OC(C)=O)C1(C)C (stereo not given in full),–,250%,882%,> 10 µg/mL,> 10 µg/mL
C=C1[C@@H](O)C[C@H](OC(C)=O)[C@@]2(C)[C@@H](OC(C)=O)[C@H](OC(=O)c3ccccc3)C3=C(C)[C@@H](OC(C)=O)C[C@@]3(C(C)(C)O)[C@@H](OC(C)=O)[C@H]12,–,158%,313%,> 10 µg/mL,> 10 µg/mL
C=C1[C@@H](OC(=O)/C=C/c2ccccc2)C[C@H](OC(C)=O)[C@@]2(C)[C@@H](OC(C)=O)[C@H](OC(C)=O)[C@]3(O)[C@@]4(C)CO[C@]3(C)C(=O)C[C@H]4[C@@H](OC(C)=O)[C@H]12 [TAXAGIFINE],–,194%,242%,1.3 µg/mL,0.86 µg/mL
CC(=O)O[C@H]1C[C@H]2[C@@H](OC(C)=O)/C=C3\C[C@](C)(C(=O)[C@H](O)C(=C1C)C2(C)C)[C@@H](OC(C)=O)C[C@@H]3OC(=O)C(O)C(c1ccccc1)N(C)C (stereo not given in full),–,119%,298%,7.1 µg/mL,> 10 µg/mL
C=C1[C@@H](OC(=O)/C=C/c2ccccc2)CC[C@@]2(C)[C@@H](O)[C@H](OC(C)=O)C3=C(C)C(=O)C[C@@H]([C@@H](OC(C)=O)[C@H]12)C3(C)C,–,173%,372%,1.1 µg/mL,0.17 µg/mL
C=C1[C@@H](OC(=O)/C=C/c2ccccc2)C[C@H](OC(C)=O)[C@]2(C)[C@@H]1C[C@@H]1C[C@H](OC(C)=O)C(C)=C([C@@H](OC(C)=O)[C@@H]2OC(C)=O)C1(C)C,–,266%,798%,4.9 µg/mL,> 10 µg/mL
C=C1[C@@H](OC(=O)/C=C/c2ccccc2)C[C@H](OC(C)=O)[C@@]2(COC(=O)c3ccccc3)[C@@H](OC(C)=O)[C@H](OC(C)=O)[C@]3(O)[C@@]4(C)CO[C@]3(C)C(=O)C[C@H]4[C@@H](OC(C)=O)[C@H]12,–,169%,537%,> 10 µg/mL,> 10 µg/mL
C=C1[C@@H](O)CC[C@@]2(C)[C@@H](OC(C)=O)[C@H](OC(C)=O)C3=C(C)C(=O)C[C@@H]([C@@H](OC(C)=O)[C@H]12)C3(C)C [TAXININE A],–,153%,461%,8.9 µg/mL,> 10 µg/mL
C=C1[C@@H](O)C[C@H](OC(C)=O)[C@@]2(C)[C@@H](OC(C)=O)[C@H](OC(C)=O)C3=C(C)[C@@H](OC(C)=O)C[C@@H]([C@@H](OC(C)=O)[C@H]12)C3(C)C [DECINNAMOYLTAXININE J],–,207%,363%,> 10 µg/mL,> 10 µg/mL
CC(=O)O[C@H]1C[C@H]2OC[C@@]2(OC(C)=O)[C@H]2[C@H](OC(C)=O)[C@]3(C(C)(C)O)C[C@H](O)C(C)=C3[C@@H](OC(=O)c3ccccc3)[C@H](OC(C)=O)[C@]12C,–,171%,240%,> 10 µg/mL,> 10 µg/mL
C=C1[C@@H](OC(=O)/C=C/c2ccccc2)C[C@H](OC(C)=O)[C@@]2(C)[C@@H](OC(C)=O)[C@H](OC(C)=O)[C@@]3(O)C(C)=C(OC(C)=O)C[C@@H]([C@@H](OC(C)=O)[C@H]12)C3(C)C,–,133%,325%,3 µg/mL,1.8 µg/mL
C=C1[C@@H](O)C[C@H](OC(C)=O)[C@@]2(C)[C@@H](OC(C)=O)[C@H](OC(C)=O)C3=C(C)[C@@H](OC(C)=O)C[C@@H]([C@@H](O)[C@H]12)C3(C)C,–,205%,439%,10 µg/mL,7.4 µg/mL
